Experimental data taken from patent US20020137929A1, “1 - (3-heterocyclylphenyl) isothiourea, -isourea, -guanidine and -amidine herbicidal agents” (Intellectual Property Department, BASF Aktiengesellschaft, priority 1998, published 2002).

What was measured:
[1] = tested on: CYPIR (Rice Flatsedge); assay: Postemergence weed control under flooded paddy conditions; assay type: in vivo, Cyperus iria; details: postemergence weeds, rated 3 to 4 weeks after treatment
Method in brief: (§1)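 Injury ratings (0–9 scale covering stand, vigor, malformation, size, chlorosis and overall appearance versus control) were made three to four weeks after treatment. Test material, about 0.0313 to 0.500 kg/ha a.i. in 50/50 v/v aqueous/acetone, was added to flood water 1.5 to 3 cm deep over 3 to 5 cm weeds and 1.5 to 2.5 leaf rice.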

[2] = tested on: ABUTH (Velvetleaf); assay: Postemergence herbicidal evaluation; assay type: in vivo, Abutilon theophrasti; details: postemergence
Method in brief: (§2)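 Seedlings grown about two weeks were sprayed at 40 psi with compound dispersed in 50/50 acetone/water plus 0.5% TWEEN 20, at about 0.0156 to 0.500 kg/ha. Plants were kept in the greenhouse and scored 4–5 weeks later on a 0–9 visual scale against untreated controls.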

[3] = tested on: ORYSAT (Rice, Tebonnet); assay: Postemergence herbicidal evaluation; assay type: in vivo, Oryza sativa, (L.) Tebonnet; details: postemergence
Method in brief: as §2

[4] = tested on: CYPSE (Flatsedge); assay: Preemergence weed control under flooded paddy conditions; assay type: in vivo, Cyperus serotinus; details: rated 3-4 weeks after treatment
Method in brief: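 Visual injury scored 0-9 against control three to four weeks post-treatment, greenhouse-grown. Application: acetone/water (50/50) solutions dosed directly into flood water (1.5-3 cm over silt loam, planted top 0.5 cm), roughly 0.0313 to 0.500 kg/ha active ingredient.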

[5] = tested on: CYPSE (Flatsedge); assay: Postemergence weed control under flooded paddy conditions; assay type: in vivo, Cyperus serotinus; details: postemergence weeds, rated 3 to 4 weeks after treatment
Method in brief: as §1

[6] = tested on: ECHCG (Barnyardgrass); assay: Postemergence herbicidal evaluation; assay type: in vivo, Echinochloa crus-galli; details: postemergence
Method in brief: as §2

[7] = tested on: GALAP (Galium); assay: Preemergence herbicidal evaluation; assay type: in vivo, Galium aparine; details: rated 4-5 weeks after treatment
Method in brief: (§3)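 Scores use a 0–9 visual scale covering stand, vigor, malformation, size and chlorosis relative to controls, rated four to five weeks after treatment. Before emergence, soil-planted seeds were sprayed with compound in aqueous acetone at roughly 0.0156–0.500 kg/ha and held in the greenhouse.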

[8] = tested on: AMBEL (Ragweed, Common); assay: Postemergence herbicidal evaluation; assay type: in vivo, Ambrosia artemisifolia; details: postemergence
Method in brief: as §2

[9] = tested on: CHEAL (Lambsquarters, Common); assay: Postemergence herbicidal evaluation; assay type: in vivo, Chenopodium album; details: postemergence
Method in brief: as §2

[10] = tested on: CASOB (Sicklepod); assay: Preemergence herbicidal evaluation; assay type: in vivo, Cassia obtusifolia; details: rated 4-5 weeks after treatment
Method in brief: as §3

[11] = tested on: ZEAMX (Corn, Field); assay: Postemergence herbicidal evaluation; assay type: in vivo, Zea mays; details: postemergence
Method in brief: as §2

[12] = tested on: GLXMAW (Soybean, Williams); assay: Postemergence herbicidal evaluation; assay type: in vivo, Glycine max, (L.) Merr. cv Williams; details: postemergence
Method in brief: as §2

[13] = tested on: AMBEL (Ragweed, Common); assay: Preemergence herbicidal evaluation; assay type: in vivo, Ambrosia artemisifolia; details: rated 4-5 weeks after treatment
Method in brief: as §3

[14] = tested on: CHEAL (Lambsquarters, Common); assay: Preemergence herbicidal evaluation; assay type: in vivo, Chenopodium album; details: rated 4-5 weeks after treatment
Method in brief: as §3

C=CCN1C(=O)C(CC(=O)OC(C)C)SC1=Nc1cc(-n2c(=O)cc(C(F)(F)F)n(C)c2=O)c(F)cc1Cl (stereo not shown) [Compound 66, Isopropyl 3-allyl-2-{{2-chloro-5-[3,6-dihydro-3-methyl-2,6-dioxo-4-(trifluoromethyl)-1(2H)-pyrimidinyl]-4-fluorophenyl}imino}-4-oxo-5-thiazolidineacetate]
Herbicidal rating CYPIR ([1]; Rate 0.0313 kg/ha): 6.0
Herbicidal rating CYPIR ([1]; Rate 0.0625 kg/ha): 6.0
Herbicidal rating CYPIR ([1]; Rate 0.1250 kg/ha): 7.0
Herbicidal rating CYPIR ([1]; Rate 0.2500 kg/ha): 7.0
ABUTH herbicidal rating ([2]; rate 0.0158 kg/ha): 9.0
ABUTH herbicidal rating ([2]; rate 0.0313 kg/ha): 9.0
ABUTH herbicidal rating ([2]; rate 0.0625 kg/ha): 9.0
ABUTH herbicidal rating ([2]; rate 0.1250 kg/ha): 9.0
ORYSAT herbicidal rating ([3]; rate 0.0158 kg/ha): 3.5
ORYSAT herbicidal rating ([3]; rate 0.0313 kg/ha): 5.0
ORYSAT herbicidal rating ([3]; rate 0.0625 kg/ha): 5.5
ORYSAT herbicidal rating ([3]; rate 0.1250 kg/ha): 5.5
CYPSE herbicidal effect rating ([4]; 0.0313 kg/ha): 0.0
CYPSE herbicidal effect rating ([4]; 0.0625 kg/ha): 0.0
CYPSE herbicidal effect rating ([4]; 0.1250 kg/ha): 4.0
CYPSE herbicidal effect rating ([4]; 0.2500 kg/ha): 4.0
Herbicidal rating CYPSE ([5]; Rate 0.0313 kg/ha): 0.0
Herbicidal rating CYPSE ([5]; Rate 0.0625 kg/ha): 0.0
Herbicidal rating CYPSE ([5]; Rate 0.1250 kg/ha): 4.0
Herbicidal rating CYPSE ([5]; Rate 0.2500 kg/ha): 4.0
ECHCG herbicidal rating ([6]; rate 0.0158 kg/ha): 2.0
ECHCG herbicidal rating ([6]; rate 0.0313 kg/ha): 9.0
ECHCG herbicidal rating ([6]; rate 0.0625 kg/ha): 9.0
ECHCG herbicidal rating ([6]; rate 0.1250 kg/ha): 9.0
Preemergence herbicidal rating GALAP ([7]; rate 0.0156 kg/ha): 0.0
Preemergence herbicidal rating GALAP ([7]; rate 0.0313 kg/ha): 0.0
Preemergence herbicidal rating GALAP ([7]; rate 0.0625 kg/ha): 0.0
Preemergence herbicidal rating GALAP ([7]; rate 0.1250 kg/ha): 3.5
Preemergence herbicidal rating GALAP ([7]; rate 0.2500 kg/ha): 8.0
Preemergence herbicidal rating GALAP ([7]; rate 0.5000 kg/ha): 9.0
AMBEL herbicidal rating ([8]; rate 0.0158 kg/ha): 6.0
AMBEL herbicidal rating ([8]; rate 0.0313 kg/ha): 9.0
AMBEL herbicidal rating ([8]; rate 0.0625 kg/ha): 9.0
AMBEL herbicidal rating ([8]; rate 0.1250 kg/ha): 9.0
CHEAL herbicidal rating ([9]; rate 0.0158 kg/ha): 5.0
CHEAL herbicidal rating ([9]; rate 0.0313 kg/ha): 9.0
CHEAL herbicidal rating ([9]; rate 0.0625 kg/ha): 9.0
CHEAL herbicidal rating ([9]; rate 0.1250 kg/ha): 9.0
Preemergence herbicidal rating CASOB ([10]; rate 0.0156 kg/ha): 0.0
Preemergence herbicidal rating CASOB ([10]; rate 0.0313 kg/ha): 0.0
Preemergence herbicidal rating CASOB ([10]; rate 0.0625 kg/ha): 0.0
Preemergence herbicidal rating CASOB ([10]; rate 0.1250 kg/ha): 0.5
Preemergence herbicidal rating CASOB ([10]; rate 0.2500 kg/ha): 0.5
Preemergence herbicidal rating CASOB ([10]; rate 0.5000 kg/ha): 3.0
ZEAMX herbicidal rating ([11]; rate 0.0158 kg/ha): 7.0
ZEAMX herbicidal rating ([11]; rate 0.0313 kg/ha): 8.5
ZEAMX herbicidal rating ([11]; rate 0.0625 kg/ha): 9.0
ZEAMX herbicidal rating ([11]; rate 0.1250 kg/ha): 9.0
GLXMAW herbicidal rating ([12]; rate 0.0158 kg/ha): 7.0
GLXMAW herbicidal rating ([12]; rate 0.0313 kg/ha): 8.5
GLXMAW herbicidal rating ([12]; rate 0.0625 kg/ha): 8.5
GLXMAW herbicidal rating ([12]; rate 0.1250 kg/ha): 9.0
Preemergence herbicidal rating AMBEL ([13]; rate 0.0156 kg/ha): 0.5
Preemergence herbicidal rating AMBEL ([13]; rate 0.0313 kg/ha): 1.0
Preemergence herbicidal rating AMBEL ([13]; rate 0.0625 kg/ha): 3.0
Preemergence herbicidal rating AMBEL ([13]; rate 0.1250 kg/ha): 9.0
Preemergence herbicidal rating AMBEL ([13]; rate 0.2500 kg/ha): 9.0
Preemergence herbicidal rating AMBEL ([13]; rate 0.5000 kg/ha): 9.0
Preemergence herbicidal rating CHEAL ([14]; rate 0.0156 kg/ha): 4.0
Preemergence herbicidal rating CHEAL ([14]; rate 0.0313 kg/ha): 9.0
Preemergence herbicidal rating CHEAL ([14]; rate 0.0625 kg/ha): 9.0
Preemergence herbicidal rating CHEAL ([14]; rate 0.1250 kg/ha): 9.0
Preemergence herbicidal rating CHEAL ([14]; rate 0.2500 kg/ha): 9.0
Preemergence herbicidal rating CHEAL ([14]; rate 0.5000 kg/ha): 9.0
